Test results reported in patent publication US20090143455A1, “Pyrazoles Useful in the Treatment of Inflammation” (priority 2005, published 2009).

Molecular target: T1, purified human 15-lipoxygenase (Homo sapiens, UniProt P16050)
T1 sequence (P16050 1-662): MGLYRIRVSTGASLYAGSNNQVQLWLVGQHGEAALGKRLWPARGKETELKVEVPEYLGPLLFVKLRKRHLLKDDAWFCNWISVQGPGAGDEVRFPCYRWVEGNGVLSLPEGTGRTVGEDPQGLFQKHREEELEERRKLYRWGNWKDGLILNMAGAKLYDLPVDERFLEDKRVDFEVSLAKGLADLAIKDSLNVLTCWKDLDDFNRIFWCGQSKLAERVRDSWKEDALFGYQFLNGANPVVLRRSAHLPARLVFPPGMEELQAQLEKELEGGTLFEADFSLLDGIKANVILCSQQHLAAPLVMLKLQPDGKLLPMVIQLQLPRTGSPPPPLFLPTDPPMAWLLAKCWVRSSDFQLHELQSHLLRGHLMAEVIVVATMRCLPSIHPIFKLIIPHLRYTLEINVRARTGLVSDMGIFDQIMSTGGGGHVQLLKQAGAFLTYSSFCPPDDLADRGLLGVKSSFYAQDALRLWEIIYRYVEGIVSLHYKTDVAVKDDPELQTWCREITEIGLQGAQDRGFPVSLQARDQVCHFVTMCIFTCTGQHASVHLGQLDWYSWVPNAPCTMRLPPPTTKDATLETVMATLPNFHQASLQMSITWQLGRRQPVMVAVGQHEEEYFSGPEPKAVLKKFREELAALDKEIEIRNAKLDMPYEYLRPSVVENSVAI
Assay: 15-lipoxygenase inhibition assay (arachidonic acid oxidation, HPLC readout)
Format: biochemical
Details: arachidonic acid substrate, room temperature
Experimental: The assay employed takes advantage of the ability of lipoxygenases to oxidize polyunsaturated fatty acids, containing a 1,4-cis-pentadiene configuration, to their corresponding hydroperoxy or hydroxyl derivatives. In this particular assay, the lipoxygenase was a purified human 15-lipoxygenase and the fatty acid was arachidonic acid. The assay is performed at room temperature (20-22° C.) and the following are added to each well in a 96-well microtiter plate:
a) 35 μL phosphate buffered saline […] (pH 7.4); b) inhibitor (i.e. compound) or vehicle (0.5 μl DMSO); c) 10 μL of a 10× concentrated solution of 15-lipoxygenase in PBS. […] The plate is then incubated for 10 minutes at room temperature; e) the enzymatic reaction is terminated by the addition of 100 μl MeOH; and f) the amount of 15-hydroperoxy-eicosatetraenoic acid or 15-hydroxy-eicosatetraenoic acid is measured by reverse phase HPLC.

IC50	Structure (SMILES)
265 nM	O=C(Nc1ccc(F)cc1F)c1cc(Cl)[nH]n1 [Example 5, 5-Chloro-N-(2,4-difluorophenyl)pyrazole-3-carboxamide]
182 nM	O=C(Nc1ccc(F)cc1)c1cc(Cl)[nH]n1 [Example 7, 5-Chloro-N-(4-fluorophenyl)pyrazole-3-carboxamide]
78 nM	O=C(Nc1ccc(Cl)cc1)c1cc(Cl)[nH]n1 [Example 8, 5-Chloro-N-(4-chlorophenyl)pyrazole-3-carboxamide]
69 nM	O=C(Nc1ccccc1OC(F)F)c1cc(Cl)[nH]n1 [Example 19, 5-Chloro-N-(2-difluoro-methoxyphenyl)pyrazole-3-carboxamide]
